Test results taken from BindingDB's records for doi:10.1016/S0960-894X(01)80331-0 (1994).
pIC50: −log10 of the molar value.

Tests used:
[1] = In Vitro Binding affinity againist 5-HT1A receptor by displacing [3H]8-OH-DPAT from pig cortex
[2] = In Vitro Binding affinity againist 5-hydroxytryptamine 1D receptor by displacing [125I]GTI from pig caudate
[3] = In Vitro Binding affinity againist 5-hydroxytryptamine 2C receptor by displacing [3H]mesulergine from pig cortex

Row | pIC50 [1] | pIC50 [2] | pIC50 [3] | Structure (SMILES)
1 | 8.34 | 7.37 | 6.18 | NCCc1coc2ccc(C(N)=O)cc12
2 | 7.14 | 6.11 | 5.09 | NCCC1COc2ccc(C(N)=O)cc21 (stereo unspecified)
